From patent publication US8865672B2, “Prevention of tissue ischemia and related methods” (The United States of America, as represented by the …, priority 2006, dated 2014)
Peptide text beside a SMILES is read from it. * marks the point of attachment. Biotin = O=C1N[C@H]2[C@H](CS[C@H]2CCCCC(=O)*)N1

Columns and labels:
[1] = tested on: VSMC and endothelial cells; assay: NO-stimulated adhesion of VSMC and endothelial cells to type I collagen (Example 9); format: cell-based; conditions: 10 μM DEA/NO
Description: Vascular cells (VSMC or endothelial) were plated at 10,000 cells/well onto 96-well plates (Maxisorb, Nunc) precoated with type I collagen (3 μg/ml). […] Plates were then washed with PBS, fixed with glutaraldehyde, stained with crystal violet, and washed. Absorbed stain was solubilized with acetic acid from fixed cells and the resulting color signal determined on a MR580Microelisa Auto Reader, (Dynatech, Alexandria, Va.) at 450 nm wavelength.

[2] = tested on: endothelial cells and platelets; assay: NO-stimulated cGMP flux in endothelial cells and platelets (Example 9); format: cell-based, human; conditions: 10 μM DEA/NO
Description: (§1) Vascular cells (endothelial) or HT-1080 cells (10^4 cells/well) grown overnight in 12-well culture in SM-GM containing 2% FCS or RPMI+10% FCS respectively and then weaned off serum over 48 h before treatment with NO donors and other agents in serum/additive free medium+0.1% BSA. Intracellular cGMP levels were determined using an enzyme immunoassay (Amersham, GE Health Care, UK). In other experiments fresh washed human platelets were incubated in Tyrode's buffer and the indicated treatment agents±NO and cGMP determined.
Endothelial cells (FIG. 62C) and platelets (FIG. 62D) in basal medium without serum or Tyrode's buffer respectively were treated with the indicated peptides±NO (10 μM DEA/NO) and cGMP levels determined.

NO/cGMP signaling = assay: cGMP signaling (NO-stimulated cGMP, immunoassay); format: cell-based, human; conditions: concentration for 50% inhibition of effect
Description: as §1

human platelets = assay: Thrombin-induced human platelet aggregation; format: cell-based; conditions: low shear, peptide 1 μM, 10 μM DEA/NO
Outline: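 Washed human platelets in Tyrode's buffer pH 7.4 (2×10^5/μl) are stirred at 1200 rpm and 37 °C, and optical aggregation is followed for 5 min; under static conditions, A400 is tracked for 5 min instead. TSP1 agents or 1 μM peptide C6d are pre-incubated for 15 min before thrombin ± DEA/NO (10 μM).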

HASMC [3] = assay: NO-stimulated HASMC adhesion on type I collagen; format: cell-based, human; conditions: DEA/NO 10 μM
Description: Cell adhesion was carried out in 96-well culture plates. After pre-coating wells with type I collagen (3 μg/ml in DPBS) harvested cells were plated at a density of 1×10^4 cells/well in medium plus 0.1% BSA and treatment agents and incubated in 5% CO2 for 1 h. Wells were washed with PBS and cells fixed with 1% glutaraldehyde for 10 min., washed and stained with 1% crystal violet for 20 min. Excess stain was rinsed away, adherent cells treated with 10% acetic acid, and plates read at 570 nm.

HASMC [4] = assay: Intracellular cGMP in HASMC; format: cell-based, human; conditions: DEA/NO 10 μM, 5 minutes
HUVEC = assay: Intracellular cGMP in HUVEC; format: cell-based, human; conditions: DEA/NO 10 μM
Description: HUVEC (10^4 cells/well) grown overnight in 96-well culture plates containing full growth medium with 2% FCS and weaned in growth medium without additives and 1% FCS over 24 hrs before treatment with NO donors and other agents in SM-GM without additives+0.1% BSA. Intracellular cGMP levels were determined according to the manufacturer's instructions using an enzyme immunoassay kit (Amersham Biosciences). In other experiments ASMC from wild type and CD36 or CD47 null mice were plated onto 96-well culture plates and incubated overnight in full growth medium. They were then weaned off serum as described to SM-GM+0.1% BSA and treated with NO donor and other agents as indicated. Intracellular cyclic nucleotides were determined via immunoassay.

[5] = tested on: murine WT and TSP1-null platelets; assay: cGMP in murine platelets; format: cell-based, mouse; conditions: 100 μM added to Tyrode's
Description: After induction of general anesthesia with isoflurane 2%, age and sex matched C57BL/6 WT and TSP1-null mice underwent cardiac puncture. Blood was aspirated into 1 cc syringes with a 25 gauge needle containing 100 μl heparin (Heparin Lock Flush, Abbott, Chicago, Ill.), mixed with 100 μl 3% ACD and centrifuged in 1.2 ml S-Monovette separation tubes (Sarstedt, Germany). PRP was aspirated off, centrifuged, and the resulting platelet pellet was resuspended in 200 μl of Tyrode's buffer.
Fresh human platelets at 2×10^5 platelets/μl in Tyrode's buffer or PRP were pre-incubated with the indicated agents for 15 minutes and then challenged with DEA/NO for the indicated time interval at room temperature and total cGMP determined via immunoassay (Amersham, GE Healthcare, Buckinghamshire, UK). Murine WT and TSP1-null platelets were treated with DEA/NO and cGMP flux measured.

VASP = assay: Phospho-Ser239 VASP Western blotting in platelets; format: cell-based, human; conditions: 8Br-cGMP 100 μM, TSP1 2.2 nM
Description: Washed human platelets (resuspended in Tyrode's buffer to 3×10^8 platelets/mL to a final volume of 0.5 mL) were incubated at 37° C. for 30 minutes before treatment. TSP1 was added 15 minutes prior to treatment. Immediately following treatment, platelets were pelleted at 13,000×g at 4° C. for 15 seconds and resuspended in 1 mL of a lysis buffer containing 10 mM Tris-HCl (pH 7.5), 150 mM NaCl, 1 mM EDTA, 1 mM Na3VO4, 40 mM NaF, 1 μg/mL aprotinin, 1 μg/mL leupeptin, 1 mM phenylmethysulfonylfluoride and 1% […]. This suspension was placed at 4° C. with gentle agitation for 5 minutes before centrifugation at 13000×g for 5 minutes at 4° C. 5 μg lysates were electrophoresed on 4-12% Bis-Tris NuPAGE gels, transferred to Immobilon PVDF membranes and probed with a rabbit polyclonal antiserum against Serine 239-phosphorylated VASP (Santa Cruz Biotechnology, Santa Cruz, Calif.).

Rap1 = Rap1 pulldown assay in platelets; format: cell-based, human; conditions: thrombin
Description: Platelets were diluted to 5×10^8 platelets/mL in Tyrode's buffer and treated with various reagents for the indicated times. Immediately following treatment, platelets were pelleted at 13,000 g for 30 seconds at 4° C. and resuspended in ice-cold lysis buffer containing 20 mM HEPES (pH 7.5), 100 mM NaCl, 10 mM EGTA, 20 mM MgCl2, 8 mM α-glycerophosphate, 1% Triton X-100, 1 mM phenylmethylsulfonylfluoride, 40 mM NaF, 1 mM Na3VO4, 10 μg/mL aprotinin, and 10 μg/mL leupeptin. Lysates were centrifuged at 13,000 g for 5 minutes at 4° C. and the supernatants were incubated for 15 minutes on a tumbler at 4° C. with glutathione Sepharose 4B beads (Amersham) prebound with a GST-Ral GDS RBD fusion protein (kind gift of J. Silvio Gutkind, NIH, Bethesda, Md.). Bead complexes were washed by centrifugation at 6,000 g for 30 seconds at 4° C. followed by resuspension in 0.5 mL lysis buffer; 2 washes were performed for each sample. After the second wash, beads were resuspended in an equal volume of 2×SDS sample buffer and stored at −20° C. For Western analysis, bead-bound proteins in sample buffer were boiled for 10 minutes and subjected to electrophoresis on NuPAGE 10% Bis-Tris gels (Invitrogen, Carlsbad, Calif.), transferred to Immobilon-P PVDF membranes (Millipore, Billerica, Mass.), and blotted with rabbit polyclonal anti-Rapt (sc-65; Santa Cruz Biotechnology, Santa Cruz, Calif.).

[6] = tested on: murine WT and TSP1-null platelets; assay: Thrombin-induced murine platelet aggregation; format: cell-based, mouse; conditions: high shear
Description: Aggregation of human platelets under high shear conditions was assessed using a standard optical aggregometer (Lumi-Dual Aggregometer, Chrono-Log Corp., Havertown, Pa.) at 37° C. and 1200 rpm in a volume of 500 μl buffer with a final platelet concentration of 2×10^5 platelets/μl over a 5 minute interval. Pre-incubation with TSP1 and TSP1-based agents was for 15 minutes prior to addition of thrombin and/or the rapidly releasing nitric oxide donor DEA/NO. In some experiments platelets were pre-incubated with the Rap1 inhibitor GGTI-298 (10 μM) (Calbiochem, La Jolla, Calif.) for 30 minutes prior to initiating aggregation. In other high shear aggregation experiments murine platelets were prepared as above with the following modifications. Mouse blood was collected by retro-orbital bleeding of anesthetized mice using heparinized tubes. PRP was prepared and then diluted with 4 vol. of Tyrodes containing 5 mM EDTA to prevent activation. After collection by centrifugation, platelets were resuspended in 2× initial PRP volume and held at room temperature for less than 1 hour before use. […] Platelet aggregation under static conditions was assessed using a spectrophotometer (Beckman DU 640, Beckman Coulter, Fullerton, Calif.) and determined as a change in absorbance at 400 nm with continuous observation over a five minute interval. […]

[7] = target: T1, CD47 IgV domain / SIRP IgV domain (Homo sapiens, UniProt Q08722); assay: ELISA of SIRP IgV domain binding to CD47 IgV domain; conditions: Fc-SIRP IgV on protein A plates, alkaline phosphatase-CD47 IgV
T1 construct: alkaline phosphatase fusions of the CD47 IgV domain
T1 sequence (Q08722 19-127 limits assumed): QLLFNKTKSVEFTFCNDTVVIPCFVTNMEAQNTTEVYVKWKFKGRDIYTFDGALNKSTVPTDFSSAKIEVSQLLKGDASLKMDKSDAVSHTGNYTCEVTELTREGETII
Excerpt: SIRP-alpha (Signal Inhibitory Regulatory Protein Alpha; SIRPα) and the closely related SIRP-gamma (SIRPγ formerly called SIRP-beta) are two ligands of CD47. They consist of an N-terminal IgV set domain and variable numbers of 1 g domains followed by a transmembrane segment and variously spliced cytoplasmic tails, some of which contain phosphorylatable tyrosines that constitute docking sites for tyrosine phosphatases such as SHP-1 and SHP-2. The IgV domain of SIRP-alpha and -gamma are high affinity ligands of CD47 with species specificity thought to allow self vs. non-self discrimination by phagocytes. The binding of the IgV domain of SIRPα to the IgV domain of CD47 can be measured in a simple ELISA assay using recombinant versions of each protein. For this purpose we have employed Fc-fusions of SIRP IgV domain and alkaline phosphatase fusions of the CD47 IgV domain. The Fc-IgV protein is adsorbed to well plates coated with protein A to which the Fc binds. Potential inhibitors are added and the binding of alkaline phosphatase-conjugated CD47 IgV domain is measured by routine procedures.

CC[C@H](C)[C@H](NC(=O)CCCC[C@@H]1SC[C@@H]2NC(=O)N[C@@H]21)C(=O)NCC(=O)N[C@@H](Cc1c[nH]c2ccccc12)C(=O)N[C@@H](CCCCN)C(=O)N[C@@H](CC(=O)O)C(=O)N[C@@H](Cc1ccccc1)C(=O)N[C@H](C(=O)N[C@@H](C)C(=O)N[C@@H](Cc1ccc(O)cc1)C(=O)N[C@@H](CCCNC(=N)N)C(=O)O)[C@@H](C)O [C6d, biotin-IGWKDFTAYR] (Biotin-IGWKDFTAYR-OH)
NO-stimulated adhesion to type I collagen [1]: blocked in a dose-dependent manner | NO-stimulated cGMP flux [2]: Blocked | IC50 (NO/cGMP signaling): ~100 nM | NO delay of thrombin-stimulated aggregation (human platelets): completely reversed

E3CaG1: recombinant C-terminal regions of TSP1
concentration that inhibited NO-driven HASMC adhesion to collagen (HASMC [3]): > 0.4 nM | NO-stimulated cGMP levels in HASMC (HASMC [4]): equipotent dose-dependent inhibitors | NO-driven cGMP production (HUVEC): potently inhibited

CC[C@H](C)[C@H](NC(=O)[C@@H](N)Cc1c[nH]cn1)C(=O)NCC(=O)N[C@@H](Cc1c[nH]c2ccccc12)C(=O)N[C@@H](CCCCN)C(=O)N[C@@H](CC(=O)O)C(=O)N[C@@H](Cc1ccccc1)C(=O)N[C@H](C(=O)N[C@@H](C)C(=O)N[C@@H](Cc1ccc(O)cc1)C(=O)N[C@@H](CCCNC(=N)N)C(=O)N[C@@H](Cc1c[nH]c2ccccc12)C(=O)N[C@@H](CCCNC(=N)N)C(=O)N[C@@H](CC(C)C)C(=O)N[C@@H](CO)C(=O)O)[C@@H](C)O [C6b, HIGWKDFTAYRWRLS] (H-HIGWKDFTAYRWRLS-OH)
NO-stimulated adhesion to type I collagen [1]: blocked in a dose-dependent manner | NO-stimulated cGMP flux [2]: Blocked | IC50 (NO/cGMP signaling): ~100 nM

N=C(N)NCCC[C@H](N)C(=O)O [L-arginine, reference compound]
platelet cGMP levels [5]: elevated cGMP levels in TSP1-null but not in WT platelets

Nc1nc2c(nc(Br)n2[C@@H]2O[C@@H]3COP(=O)(O)O[C@H]3[C@H]2O)c(=O)[nH]1 [8Br-cGMP, 8-Bromo cyclic guanine monophosphate, reference compound]
VASP phosphorylation at Ser239 (VASP): stimulates VASP phosphorylation at Ser239 | Rap1 activation (GTP loading) (Rap1): inhibited this activation | thrombin-induced aggregation ([6]; TSP1-null platelets): rendered TSP1-null platelets resistant to thrombin-induced aggregation | thrombin-induced aggregation ([6]; WT murine platelets): substantially inhibited aggregation of WT murine platelets

CC[C@H](C)[C@H](N)C(=O)NCC(=O)N[C@@H](Cc1c[nH]c2ccccc12)C(=O)N[C@@H](CCCCN)C(=O)N[C@@H](CC(=O)O)C(=O)N[C@@H](Cc1ccc(O)cc1)C(=O)N[C@H](C(=O)N[C@@H](C)C(=O)N[C@@H](Cc1ccc(O)cc1)C(=O)N[C@@H](CCCNC(=N)N)C(=O)O)[C@@H](C)O [compound 37298, IGWKDYTAYR] (H-IGWKDYTAYR-OH)
inhibition of binding of the SIRP IgV domain to CD47 [7]: can inhibit the binding | IC50 (NO/cGMP signaling): ~100 nM
